Data on two compounds can be found in patent US9662059B2, “Imaging agents for monitoring changes of dopamine receptors and methods of using thereof” (The Regents of the University of California, priority 2007, dated 2017).

Molecules are shown by their SMILES. Entries after “also recorded” stand apart in the source; their conditions may differ.

For series [1], the target named is T1, D2R (Rattus norvegicus, UniProt P61169). The experiment in a line: in vitro autoradiography of ^18F-fallypride binding in rat pancreas sections. The arrangement: from tissue; host or cells: rat pancreas, 10 μm cryosections. The protocol: Male Sprague-Dawley rats (200-250 g) or male Lewis rats (100-150 g) were anesthetized and decapitated. The brain and pancreas was rapidly removed and frozen in isopentane at −20° C. […] Slices were stored at −20° C. Slices were preincubated for 10 minutes in 50 mM Tris-HCl, 120 mM NaCl, 5 mM KCl buffer (pH 7.4). Slices were then incubated with 1-2 μCi/cc of ^18F-fallypride at 37° C. for 1 hour. […] After incubation, slices were rinsed twice for 2 min in ice-cold buffer, dipped briefly in ice-cold water, blown dry and laid out for autoradiography. Slides with tissue samples were exposed to a multipurpose storage phosphor screen for 24 hours and developed; the autoradiographs were generated using the Phosphor Cyclone Imager (Packard Instruments Co.) The amount of binding in the pancreas was measured as digital light units, DLU/mm^2. Autoradiographs were quantified using a computer-based image analysis system (OptiQuant Version 4.0 Packard Instruments Co., Boston Mass.).
T1 sequence (P61169 whole entry): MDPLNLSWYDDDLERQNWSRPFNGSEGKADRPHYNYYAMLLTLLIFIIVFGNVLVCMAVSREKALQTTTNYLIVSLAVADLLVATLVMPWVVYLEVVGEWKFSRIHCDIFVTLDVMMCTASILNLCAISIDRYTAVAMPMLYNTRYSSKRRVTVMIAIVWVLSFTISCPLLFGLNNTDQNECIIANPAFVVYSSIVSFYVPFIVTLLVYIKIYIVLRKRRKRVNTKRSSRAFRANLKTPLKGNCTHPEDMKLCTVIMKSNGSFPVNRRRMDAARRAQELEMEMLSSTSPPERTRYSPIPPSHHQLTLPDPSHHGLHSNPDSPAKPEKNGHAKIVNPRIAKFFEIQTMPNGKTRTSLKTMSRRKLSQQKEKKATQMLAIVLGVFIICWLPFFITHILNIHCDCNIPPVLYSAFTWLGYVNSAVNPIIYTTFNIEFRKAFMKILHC

In series [2] the target is T2, D2R (Homo sapiens, UniProt P14416).
T2 construct: from tissue; host or cells: pancreas region of a healthy human volunteer, in vivo
T2 sequence (P14416 whole entry): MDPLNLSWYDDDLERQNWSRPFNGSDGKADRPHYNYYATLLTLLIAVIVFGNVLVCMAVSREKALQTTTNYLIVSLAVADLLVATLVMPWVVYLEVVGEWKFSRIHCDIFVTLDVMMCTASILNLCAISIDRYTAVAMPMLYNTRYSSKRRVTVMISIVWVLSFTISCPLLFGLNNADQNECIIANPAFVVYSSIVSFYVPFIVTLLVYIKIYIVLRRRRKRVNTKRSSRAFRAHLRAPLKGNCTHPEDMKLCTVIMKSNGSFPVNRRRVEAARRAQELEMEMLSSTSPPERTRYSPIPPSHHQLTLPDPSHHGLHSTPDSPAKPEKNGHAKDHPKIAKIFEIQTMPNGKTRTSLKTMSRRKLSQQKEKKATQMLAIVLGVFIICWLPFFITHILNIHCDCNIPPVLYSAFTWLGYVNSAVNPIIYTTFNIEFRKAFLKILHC
The experiment in a line: human PET imaging of the pancreas region with whole body HR+ PET scanner. The class given is in vivo. Conditions: healthy volunteer, 80 mins post injection. The protocol:
The subjects were prepared by placing one intravenous catheter in one arm for administration of the ^18F-fallypride. The subjects were then positioned in the PET scanner, and their alignment was marked for purposes of repositioning. The subjects were requested to lay still during the PET data acquisition in the dimly lit quiet room but were free to open/shut their eyes. The PET data was acquired with an EXACT HR+ PET scanner (in-plane FWHM=4.6 mm, axial FWHM=3.5 mm, axial FOV=15.52 cm). A 5-minute transmission scan using ^68Ge/^68Ga rod sources was acquired prior to administration of the radiopharmaceutical. Scanning was initiated with a 30-second bolus infusion of the radiopharmaceutical followed by a saline flush. A ^18F-fallypride dose of approximately 0.07 mCi/kg was administered to each of the subjects (subjects weight ranged between 70 to 95 kg). The dynamic scanning sequence consisted of 6 frames at 30 seconds, 7 frames at 1 minute, 5 frames at 2 minutes, 4 frames at 5 minutes and 4 frames at 10 minutes. The subject was marked for repositioning and then removed from the scanner for a 20-minute break period. A second dynamic sequence with 8 frames at 10 minutes each was acquired, yielding a total study time of approximately 3 hours. The data set was reconstructed using the ECAT v 7.2 software, with an OSEM algorithm (3 iterations, 16 subsets). […]

Series [3] addresses T1, D2R. The series is described as follows: ex vivo autoradiography of brain and pancreas after intravenous ^18F-fallypride. The class given is in vivo, Lewis rats. More on the design: The brain and pancreas were isolated and sectioned to 10 μm and 40 μm sections; from tissue; host or cells: brain (striata, cerebellum) and pancreas of living Lewis rats. The protocol: For ex vivo studies, Lewis rats were anesthetized with halothane and injected intravenously with ^18F-fallypride (0.1 to 0.2 mCi). The rats were then sacrificed at either 60 or 120 min post-injection. The brain and pancreas were isolated and sectioned to 10 μm and 40 μm sections. Slides with tissue samples were exposed to a multipurpose storage phosphor screen for 24 hours and developed; the autoradiographs were generated using the Phosphor Cyclone Imager (Packard Instruments Co.). Brain slices contained the striata, cerebellum and other regions known to contain D2R. The amount of binding to the striata, cerebellum and pancreas was measured as digital light units, DLU/mm^2. Autoradiographs were quantified using a computer-based image analysis system (OptiQuant Version 4.0 Packard Instruments Co., Boston Mass.).

The target in series [4] is T1, D2R. The series is described as follows: ^18F-fallypride binding to pancreatic and brain sections of control and streptozotocin-treated rats. More on the design: from tissue; host or cells: pancreas, striatum and cerebellum sections of male Sprague-Dawley rats; species or system male Sprague-Dawley rats. How it is done: Male Sprague-Dawley rats were used to develop a model for diabetes. Streptozotocin (STZ) (80 mg/kg body weight, i.p. injection) chemically destroyed beta-cells and induced diabetes in adult male Sprague-Dawley rats (Lai et al., Am J Physiol Endocrinol Metab 2007 292:E292). Blood glucose was monitored by tail vein-sampling. Diabetic rats were harvested 7 days after the onset of diabetes. ^18F-fallypride binding to pancreatic and brain sections was done for three pairs of STZ- and age-matched rats. […] Specific binding was determined for each animal by subtracting nonspecific binding, measured in digital light units per mm^2 (DLU/mm^2), from total binding for adjacent tissue sections in brain and pancreas.

The next series has as its system D2/D3 receptors. The settings on record: cited from earlier work.
For a further series, the system named is dopamine D2/D3 receptors. The experiment in a line: human PET/CT imaging with ^18F-fallypride, standard uptake values in organs. The class given is in vivo. The settings on record: normal human subject. How it is done: The subjects were prepared by intravenous administration of ^18F-fallypride. After 80 minutes, the subjects were then positioned in the Siemen's PET/CT Biograph. The subjects were requested to lay still during the PET/CT data acquisition in the dimly lit quiet room but were free to open/shut their eyes. Static scans of 10 mins duration each were acquired at different bed positions.
The reconstructed dynamic PET data sets were first realigned to a reference summed image (50-80 minutes) to correct for patient motion and slight differences in positioning between the dynamic scans. These dynamic data sets were then used to create time-activity curves as well as pixel-by-pixel parametric images of the distribution volume ratio (DVR). The cerebellum (cerebellar lobes) was chosen as the reference region, having a minimal amount of specific binding to dopaminergic sites. The PET/CT data was analyzed to provide standard uptake values (SUV) in different organs which were identified using the CT image.

For series [5] the following is noted: arterial blood plasma at 3 hr; cited from earlier work.
[6] abbreviates: rat killed at 60 min post-injection.

Regarding `NCCc1ccc(O)c(O)c1` [Dopamine], the “displacement of ^18F-fallypride binding to the pancreas” value at D2R [1] (rat pancreatic sections, competitor 100 μM) was “does not displace; also recorded: did not displace”.
Turning to `C=CCN1CCC[C@H]1CNC(=O)c1cc(CCC[18F])cc(OC)c1OC` [^18F-fallypride], the “Uptake of ^18F-fallypride in the human pancreas” value at D2R [2] is “comparable with that in the brain”. Further, the “binding in the pancreas” value on D2R [3] (Rat #2 killed at 120 min) is listed as “significant amount of binding”. Besides, on D2R [3] (setting [6]), the “Ratio of pancreas to cerebellum” value is given as 5.3 and the “Ratio of striatum to cerebellum” value is given as 55.3. For the same compound, on D2R [4] (Control rats), the “^18F-Fallypride binding, Cerebellum” value is on record as 1597 ± 1382 DLU/mm^2; the “^18F-Fallypride binding, Pancreas” value was 1393 ± 479 DLU/mm^2; the “^18F-Fallypride binding, Striatum” value is 121,167 ± 41,190 DLU/mm^2. Moreover, the “change in ^18F-fallypride binding to control tissues striatum and cerebellum” value on D2R [4] (STZ-treated rats vs control) is “no change”. Also, the “reduction of specific ^18F-fallypride binding in the pancreas” value on D2R [4] (STZ-treated rats vs control, p<0.05) is ~70%. For the same compound, on D2R [4] (Streptozotocin-treated rats), the “^18F-Fallypride binding, Cerebellum” value was determined as 1119 ± 632 DLU/mm^2 and the “^18F-Fallypride binding, Striatum” value is listed as 112,059 ± 35,271 DLU/mm^2. On D2R [4] (Streptozotocin-treated rats, p < 0.05), the “^18F-Fallypride binding, Pancreas” value is reported as 310 ± 303 DLU/mm^2. Besides, in the series on D2/D3 receptors (human brain), the “decrease in binding with aging, all brain regions” value is reported as > 10 % per decade. Besides, in the series on D2/D3 receptors (younger subject), the “BP, orbitofrontal cortex” value is listed as 0.4 and the “BP, putamen” value is on record as 37. Further, in the series with dopamine D2/D3 receptors, the “Ratio Organ/Ant Abd muscle, Pancreas- Body” value is 2.83; the “Ratio Organ/Ant Abd muscle, Pancreas- Head” value came out at 2.73; the “Ratio Organ/Ant Abd muscle, Pancreas- Tail” value was found to be 3.10; the “SUV, Anterior Abdominal Muscle” value is listed as 0.6. In the series with dopamine D2/D3 receptors, the “SUV, Gall bladder” value was 123; the “SUV, Kidney” value is listed as 2.2; the “SUV, Liver” value worked out at 5.0; the “SUV, Liver left lobe” value came to 4.9. Further, in the series on dopamine D2/D3 receptors, the “SUV, Liver right lobe” value was 5.1; the “SUV, Lung” value was determined as 1.1; the “SUV, Pancreas- Body” value is 1.7; the “SUV, Pancreas- Head” value is recorded as 1.64. In the series on dopamine D2/D3 receptors, the “SUV, Pancreas- Tail” value stood at 1.86; the “SUV, Psoas Muscle” value is 0.9; the “SUV, Spine (bone marrow)” value was found to be 2.8; the “SUV, Spleen” value turned out to be 1.5. In addition, in series [5], the “plasma radioactivity that was ^18F-fallypride” value is recorded as 30-40%. Also, the “^18F-fallypride binding to rat pancreatic sections” value on D2R [1] (10 μm sections, 37° C., 1 hour) was “binds to rat pancreatic sections”.
